# Patent US6890951B2, “Treatment of addiction and addiction-related behavior” (Brookhaven Science Associates LLC, priority 1998, dated 2005)
# “Also recorded” adds a separate entry of the source.
# Columns and labels:
# [1] = tested on: male Sprague-Dawley rats; experiment: Food-induced conditioned place preference; assay type: in vivo
# Description: In order to test food-induced CPP in rodents, four groups of rats were allowed access to food ad libitum during the entire 12 session of CPP procedure. The 12 session CPP procedure was exactly the same as the procedure used in the cocaine induced CPP studies except the appetitive substance was food rather than cocaine. […] The animals in all four groups were habituated to Froot Loops, a fruit-flavored breakfast cereal that is very appealing to laboratory rats, in the appropriate chamber in the test room during four habituating sessions. […] The amount of time spent in the paired and unpaired chambers was recorded using an automated device.
# In this example the procedure outlined in Section 3 of Materials and Methods was followed.
# [2] = tested on: Sprague-Dawley rats; experiment: Gross locomotor activity during microdialysis (infrared motion sensor); conditions: GVG, during the 2.5 hour pretreatment interval
# Description: In parallel to the quantitative estimates of dopamine concentration, the locomotor response of these animals to stimulant administration was simultaneously quantified using an infrared motion sensor. This infrared optical proximity detector monitored movement of the gimbaled arm, an integral component of the freely moving system. The digital output of the detector was interfaced with an IBM personal computer and programmed to count both positive and negative arm deflections. […] Locomotor activity was then expressed as the number of deflections per sample interval.
# [3] = tested on: extracellular DA in the NACC; experiment: In vivo microdialysis: nicotine-induced increases in extracellular NACC DA; design: species or system rats
# Description: All animals were used under an IACUC-approved protocol and with strict adherence to the NIH guidelines. Adult male Sprague-Dawley rats (200-300 g, Taconic Farms), housed in the animals care facility under 12:12 light/dark conditions, were placed into 6 groups (n=5-9), anesthetized and siliconized guide cannulae were stereotactically implanted into the right NACC (2.0 mm anterior and 1.0 mm lateral to bregms, and 7.0 mm ventral to the cortical surface) at least 4 days prior to study. […] Animals were placed in bowls, and probes were inserted and flushed with ACSF overnight. On the day of the study, a minimum of three samples were injected to determine baseline stability. Samples were collected for 20 min. and injected on-line (CMA/160, BAS). The average Dopamine concentration of these three stable samples was defined as control (100%), and all subsequent treatment values were transformed to a percentage of that control. […] The high performance liquid chromatography (HPLC) system consists of a BAS reverse-phase column (3.0 μC-18), a BAS LC-4C electrochemical transducer with a dual/glassy carbon electrode set at 650 mV, a computer that analyzes data on-line using a commercial software package (Chromograph Bioanalytical Systems), and a dual pen chart recorder. The mobile phase (flow rate 1.0 ml/min) consisted of 7.0% methanol, 50 mM sodium phosphate monobasic, 1.0 mM sodium octyl sulfate, and 0.1 mm EDNA, pH 4.0. […] Upon completion of the study, animals were decapitated and frozen sections were obtained for probe placement verification.
# The open circles are control animals.
# In all studies, animals were placed in the microdialysis bowls the night before the experiment and artificial cerebrospinal fluid (ACSF) was perfused through the microdialysis probes at a flow rate of 2.0 μl/min. At the end of each study, animals were sacrificed and their brains were removed and sectioned for probe placement verification.
# [4] = tested on: rats; experiment: Nicotine-induced conditioned place preference; assay type: in vivo
# Description: A total of 8 rats were examined for each treatment pairing. Animals received 4 pairings over an 8 day period, one pairing per day. […] The protocol on days 1 and 2 was repeated 3 additional times.
# The CPP apparatus was made entirely of plexiglass, except for the floor in one of the pairing chambers, which was made of a stainless steel plate with holes (0.5 mm in diameter) spaced 0.5 mm from edge to edge. The two pairing chambers differed in visual and tactile cues. One chamber was entirely light blue with the stainless steel floor and the second chamber was light blue with horizontal black stripes (2.5 cm wide) spaced 3.8 cm apart with a smooth plexiglass floor.
# The conditioning procedure consisted of 20 sessions carried out consecutively over 20 days. The first three sessions were habituation sessions, during which the animals were handled for 5 minutes per day and exposed to the sights and sounds of the test room. […] The amount of time spent in each chamber was recorded using an automated infrared beam electronically coupled to a timer.
# The animals were habituated as described above. […] Subsequently, the animals were then placed into the appropriate chamber for 30 minutes. This was repeated for 8 pairings over a 16 day period. On the test day, animals were placed in the CPP apparatus and allowed free access to the all of the CPP chambers and the amount of time spent in chamber was recorded.
# [5] = tested on: male Sprague-Dawley rats; experiment: Locomotor activity (Photobeam Activity System); assay type: in vivo; conditions: GVG 150 mg/kg or 300 mg/kg i.p., 2.5 hours before
# Experimental: Animals were prehandled for 5 minutes each day for one week prior to the experiment to reduce handling stress. […] The animals were transported to the testing area one hour before each experiment. […] The locomotor cages themselves are 41.3×41.3×30.5 cm clear acrylic cages. The electronic system (Photobeam Activity system, San Diego Instruments, San Diego, Calif.) used to monitor locomotor activity consists of 16 infrared beams projecting across the cages from left to right and 16 beams from front to back. All the infrared beams are approximately 0.39 cm from the floor.
# In this example the procedures outlined in Section 4 and 5 of Materials and Methods were followed.
# [6] = tested on: freely moving rats; experiment: Cocaine-induced stereotypy after a sensitizing regimen of cocaine; assay type: in vivo
# Experimental: The phenomenon of sensitization is observed with virtually all drugs of addiction. Sensitization is believed to play a role in the etiology of addiction.
# Animals received 15 mg/kg i.p. of cocaine and stereotypy was determined in standard locomotor cages. For 6 consecutive days, animals received 15 mg/kg i.p. of cocaine once a day in their home cages. Eight days later, animals were rechallenged with 15 mg/kg i.p. of cocaine and stereotypy was determined. A five point rating scale was used to assess stereotypy and the rater was blind to the treatment received by each animal.
# [7] = acquisition, GVG 37.5 mg/kg i.p. 2.5 hours before nicotine 0.4 mg/kg s.c., 8 pairings
# [8] = acquisition, GVG 75 mg/kg i.p. 2.5 hours before nicotine 0.4 mg/kg s.c., 8 pairings
# [9] = acquisition, GVG 75 mg/kg i.p. 2.5 hours prior to nicotine 0.4 mg/kg s.c. (Table XII)
# [10] = expression, Saline/Nicotine pairings, GVG 37.5 mg/kg on test day
# [11] = expression, Saline/Nicotine pairings, GVG 75 mg/kg on test day
# [12] = expression, Saline/Nicotine pairings, GVG 150 mg/kg on test day
smiles,measurement,setting,value
"C=CC(N)CCC(=O)O (racemic) [GVG, 4-amino-5-hexanoic acid]","Time spent in chambers, Paired",[1]; GVG 150 mg/kg ip / Food,9.4 ± 0.4 min
same,"Time spent in chambers, Unpaired",[1]; GVG 150 mg/kg ip / Food,5.6 ± 0.5 min
same,"Time spent in chambers, Paired",[1]; GVG 300 mg/kg ip / Food,9.0 ± 0.5 min
same,"Time spent in chambers, Unpaired",[1]; GVG 300 mg/kg ip / Food,6.0 ± 0.5 min
same,CPP response to food,[1]; GVG 150 and 300 mg/kg,did not alter the CPP response to food
same,gross locomotor activity,[2],did not alter gross locomotor activity
same,basal DA levels prior to nicotine administration,[3]; GVG 75 mg/kg,no effect on basal DA levels
same,effect on nicotine-induced increases in DA,[3]; GVG 75 mg/kg i.p. 2.5 hours before nicotine 0.4 mg/kg,no effect
same,effect on nicotine-induced increases in DA,[3]; GVG 100 mg/kg i.p. 2.5 hours before nicotine 0.4 mg/kg,completely abolished; also recorded: completely blocked
same,effect on nicotine-induced increases in DA,"[3]; GVG 100 mg/kg i.p. 2.5 hours before nicotine 0.4 mg/kg, listed as vigabatrin",completely blocked
same,effect on nicotine-induced increases in DA,[3]; GVG 150 mg/kg i.p. 2.5 hours before nicotine,blocks; also recorded: completely abolished
same,basal DA levels prior to nicotine administration,"[3]; GVG 90, 100 or 150 mg/kg",lowered basal DA levels
same,inhibition at 90 mg/kg,"[3]; Rattus norvegicus, ip, GVG 90 mg/kg i.p. 2.5 hours before nicotine 0.4 mg/kg",~50%
same,effect on nicotine-induced increases in extracellular DA,"[3]; chronically nicotine treated, GVG 100 mg/kg 2.5 hours prior to nicotine",completely abolished
same,nicotine-induced increase of extracellular DA above baseline,"[3]; chronically nicotine treated, GVG 100 mg/kg 12 hours prior to challenge",approximately 25%
same,acquisition of nicotine-induced CPP,[4]; GVG 37.5 mg/kg,did not significantly block and not
same,acquisition phase of nicotine-induced CPP,[4]; GVG 75 mg/kg,significantly blocked; also recorded: abolish
same,"Time spent in chambers, Paired",[4]; [7],8.8 ± 0.5 min
same,"Time spent in chambers, Unpaired",[4]; [7],6.2 ± 0.5 min
same,"Time spent in chambers, Paired",[4]; [8],6.9 ± 0.9 min
same,"Time spent in chambers, Unpaired",[4]; [8],8.1 ± 0.9 min
same,"Time spent in chambers, Paired",[4]; [9],6.4 ± 0.3^4 min
same,"Time spent in chambers, Unpaired",[4]; [9],8.6 ± 0.3^5 min
same,"Time spent in chambers, Paired",[4]; [10],6.8 ± 1.0 min
same,"Time spent in chambers, Unpaired",[4]; [10],8.2 ± 1.0 min
same,"Time spent in chambers, Paired",[4]; [11],6.4 ± 0.3 min
same,"Time spent in chambers, Unpaired",[4]; [11],8.6 ± 0.3 min
same,"Time spent in chambers, Paired",[4]; [12],5.0 ± 0.9 min
same,"Time spent in chambers, Unpaired",[4]; [12],10.0 ± 0.9 min
same,locomotor activity compared to saline pretreated controls,[5],did not alter locomotor activity
same,Stereotypies on Day 15,"[6]; 150 mg/kg i.p. of GVG 2 hrs. before, cocaine 15 mg/kg i.p. rechallenge after sensitizing regimen",2.3 ± 0.6
same,expression of cocaine-induced sensitization,[6]; GVG 150 mg/kg i.p. 2.5 hours prior to the cocaine challenge,abolished the expression of cocaine-induced sensitization
same,Stereotypy score on Day 1,"[6]; cocaine 15 mg/kg i.p., baseline of the group later given GVG (no GVG on Day 1)",2.9 ± 0.4
